SMILES strings stand for the structures. Read-outs that look alike come from different tables or passages of the source. Some results are limits rather than exact numbers.

One data set has as its target hPin1 (Homo sapiens, UniProt Q13526). The data set can be described thus: protease-coupled PPIase assay, hPin1. Type of data set: biochemical. To be noted: 6 nM hPin1, substrate Ac-Ala-Ala-Ser(PO3H2)-Pro-Arg-pNA, trypsin, pH 7.8, 6° C.; read-out: IC50 class, Target T-1 (hPin1).
Another data set has as its target LpCyp18 (Legionella pneumophila, UniProt Q5ZRZ4). Nature of the data set: biochemical. The settings on record: IC50 class, Target T-4 (LpCyp18).
The target in another data set is EcParvulin (Escherichia coli, UniProt P0A9L5). Nature of the data set: protease-coupled PPIase assay, EcParvulin. Type of data set: biochemical.
Another data set concerns the target hCyp18 (Homo sapiens, UniProt P62937). The data set can be described thus: protease-coupled PPIase assay, hCyp18. The settings on record: 10 nM hCyp18, substrate Suc-Ala-Phe-Pro-Phe-pNA, chymotrypsin, pH 7.8, 6° C.; read-out: IC50 class, Target T-3 (hCyp18). It counts as biochemical.
For another data set, the target named is T1, Papain (Carica papaya, UniProt P00784).
T1 sequence (P00784 134-345): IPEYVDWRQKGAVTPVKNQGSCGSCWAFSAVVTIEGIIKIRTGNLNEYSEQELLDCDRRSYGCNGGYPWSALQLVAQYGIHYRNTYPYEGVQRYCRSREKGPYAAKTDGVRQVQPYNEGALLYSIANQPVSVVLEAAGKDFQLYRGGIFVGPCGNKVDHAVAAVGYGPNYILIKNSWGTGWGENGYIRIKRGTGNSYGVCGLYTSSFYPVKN
The data set can be described thus: papain assay. It counts as biochemical. The settings on record: 16 μg/ml papain, 2 mM Bz-DL-Arg-pNA, pH 6.5, 30° C., 30 min incubation; read-out: IC50 class, Target T-6 (Papain). As to the method:
In order to investigate the impact of some of the inventive compounds on the activity of key proteases the following assay was performed: Protease activities were measured spectrophotometrically at 30° C. according to Schomburg and Salzmann (Schomburg, B.; Salzmann M. GBF: Enzyme Handbook. Springer Verlag, Berlin Heidelberg, 1991) and Bergmeyer et al. (Bergmeyer, H. U.; Bergmeyer, J.; Graβl, M. Methods of Enzymatic Analysis, Vol. V Enzymes 3: Peptides, Proteinases and Their Inhibitors. pp 55-371, VCH, Weinheim, 1988). The release of 4-nitroaniline was determined at 390 nm with a Spectramax Plus UV/Vis spectrophotometer (Molecular Devices). The cathepsin B assay was performed in a reaction mixture containing 0.2 μg/ml cathepsin B, 2 mM Z-Arg-Arg-pNA in 88 mM KH2PO4, 12 mM Na2HPO4, 1.33 mM EDTA, 0.03% Brij 35 (pH 5.8). The trypsin assay was carried out in a reaction mixture containing 0.1 μg/ml trypsin and 120 μM Ac-Ala-Ala-Ser(PO3H2)-Pro-Arg-pNA in 35 mM HEPES (pH 7.8) and the papain assay in a mixture consisting of 16 μg/ml papain and 2 mM Bz-DL-Arg-pNA in 10 mM Na2HPO4, 2 mM L-Cys, 5 mM EDTA (pH 6.5). In general, reactions were started by addition of peptide substrate after a 30 min incubation of 1-100 μM effector with given concentrations of enzyme.

The next data set has as its target hFKBP12 (Homo sapiens, UniProt P62942). The data set can be described thus: protease-coupled PPIase assay, hFKBP12. Type of data set: biochemical. The settings on record: 20 nM hFKBP12, substrate Suc-Ala-Phe-Pro-Phe-pNA, chymotrypsin, pH 7.8, 6° C.; read-out: IC50 class, Target T-2 (hFKBP12).
Data set [1] is described as follows: WST-1 cytotoxicity assay, HL-60. Type of data set: cell-based. The settings on record: human, HL-60 cells (acute myeloid leukemia); WST-1, 48 h incubation; read-out: EC50 class, cytotoxic effect, CL-1 (HL-60). As to the method: For this cytotoxic evaluation of the compounds the commercial available WST-1 assay (Roche) was used according to the manufacturer's instructions. The assay is based on the cleavage of the tetrazolium salt WST-1 by mitochondrial dehydrogenases found in viable cells. In general compounds were added to cells cultured in 96-well plates at 37° C. After 48 h of incubation 10 μl of WST-1 solution was added. The formazan dye was analyzed with an ELISA plate reader at (450 vs. 620) nm. CL-1: human acute myeloid leukemia, HL-60 CL-2: human cervix carcinoma, HeLa CL-3: human prostate carcinoma, PC-3 CL-4: human colon adenocarcinoma, Caco-2 CL-5: human breast adenocarcinoma, MCF-7
In general terms: Formazan colour is commonly taken as a measure of viable cells.

The mark [2] stands for this setting: 20 nM EcParvulin, substrate Suc-Ala-Phe-Pro-Phe-pNA, chymotrypsin, pH 7.8, 6° C., read-out: IC50 class, Target T-5 (EcParv).

Chain of hPin1 (Q13526 whole entry): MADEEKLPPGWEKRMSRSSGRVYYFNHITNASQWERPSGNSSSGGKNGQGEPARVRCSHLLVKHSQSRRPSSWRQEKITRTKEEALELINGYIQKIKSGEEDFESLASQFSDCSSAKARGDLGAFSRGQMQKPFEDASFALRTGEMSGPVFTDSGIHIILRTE
Chain of LpCyp18 (Q5ZRZ4 1-164): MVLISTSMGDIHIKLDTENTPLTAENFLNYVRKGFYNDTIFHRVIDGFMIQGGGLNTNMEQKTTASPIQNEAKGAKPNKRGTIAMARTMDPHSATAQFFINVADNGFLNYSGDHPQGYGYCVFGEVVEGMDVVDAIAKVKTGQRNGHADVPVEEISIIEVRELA
Chain of EcParvulin (P0A9L5 whole entry): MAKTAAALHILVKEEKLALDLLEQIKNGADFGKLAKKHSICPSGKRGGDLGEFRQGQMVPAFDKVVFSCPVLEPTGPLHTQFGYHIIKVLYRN
Chain of hCyp18 (P62937 whole entry): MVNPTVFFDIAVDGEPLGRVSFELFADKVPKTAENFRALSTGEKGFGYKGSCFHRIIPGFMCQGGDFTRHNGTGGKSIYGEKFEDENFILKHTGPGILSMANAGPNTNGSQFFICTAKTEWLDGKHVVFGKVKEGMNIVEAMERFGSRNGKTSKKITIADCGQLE
Chain of hFKBP12 (P62942 whole entry): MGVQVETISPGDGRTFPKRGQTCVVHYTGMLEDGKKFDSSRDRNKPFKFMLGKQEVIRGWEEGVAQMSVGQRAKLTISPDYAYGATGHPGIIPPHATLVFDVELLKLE

In general, IC50 refers to the concentration needed to halve the response being measured. Take `CC(C)(C)NC(=O)Nc1cc(Cl)cc(Cl)c1O` [Compound 31]: the IC50 at hPin1 was under 1 µM.
Regarding `Cc1c(Cl)cc(NC(=O)NC23CC4CC(CC(C4)C2)C3)c(O)c1Cl` [Compound 118], the IC50 is 10 to 50 µM at LpCyp18; 1 to 10 µM on EcParvulin; 1 to 10 µM at hPin1; 10 to 50 µM on hCyp18; over 100 µM at Papain; 50 to 100 µM on hFKBP12.
Take `Cc1c(Cl)cc(NC(=O)Nc2ccccc2)c(O)c1Cl` [Compound 120]: the 50% inhibitory concentration (IC50) against LpCyp18 was over 100 µM; on hPin1, 10 to 50 µM; at hCyp18, 10 to 50 µM; at hFKBP12, 50 to 100 µM.
As to `CC(C)(C)CC(C)(C)NC(=O)Nc1cc(Br)cc(F)c1O` [Compound 126], at hPin1, the half-maximal inhibitory concentration (IC50) is under 1 µM.
Still for that read-out and setting: under `CC(C)(C)NC(=O)Nc1cc(Br)cc(F)c1O` [Compound 127] stands 1 to 10 µM.
Same read-out and setting: under `O=C(Nc1cc(Br)cc(F)c1O)NC12CC3CC(CC(C3)C1)C2` [Compound 142] stands under 1 µM.
Turning to `Cc1c(Cl)cc(NC(=S)NC(C)(C)CC(C)(C)C)c(O)c1Cl` [Compound 257], the IC50 at hPin1 was under 1 µM.
`Cc1c(Cl)cc(NC(=S)Nc2ccccc2C(F)(F)F)c(O)c1Cl` [Compound 266]: the IC50 against LpCyp18 was over 100 µM; on EcParvulin (setting [2]) it was 1 to 10 µM; at hPin1 it was under 1 µM; on hCyp18, over 100 µM; on hFKBP12, over 100 µM.
In the case of `Oc1c(F)cc(Br)cc1NCc1ccccc1Sc1ccc(Cl)cc1` [Compound 385], at Papain, the IC50 was over 100 µM.
As for `O=[N+]([O-])c1ccc(Sc2ccccc2CNc2ccc(F)c(F)c2O)cc1` [Compound 400], the IC50 at hPin1 was under 1 µM.
Regarding `Oc1c(Cl)cc(Cl)cc1NCc1cccc(Oc2ccc(Cl)cc2)c1` [Compound 482], the half-inhibitory concentration (IC50) on LpCyp18 is over 100 µM; at EcParvulin (setting [2]) it was over 100 µM; at hPin1, 1 to 10 µM; at hCyp18 it was 10 to 50 µM; on hFKBP12, over 100 µM.
In the case of `Cc1c(Cl)cc(NCc2cccc(Oc3ccc(Cl)cc3)c2)c(O)c1Cl` [Compound 498], the IC50 on Papain was over 100 µM.
Take `Cc1c(Cl)cc(NCc2cccc(Oc3ccc(C(C)(C)C)cc3)c2)c(O)c1Cl` [Compound 499]: the 50% inhibitory concentration (IC50) on Papain was over 100 µM.
Consider `Cc1c(Cl)cc(NCc2c(F)cccc2Cl)c(O)c1Cl` [Compound 512], for which the IC50 against LpCyp18 was over 100 µM; on EcParvulin (setting [2]), 10 to 50 µM; on hPin1, 10 to 50 µM; at hCyp18, 50 to 100 µM; at hFKBP12, over 100 µM.
In the case of `CCOC(=O)C(Cc1ccccc1)NC(=O)Nc1cc(Cl)c(C)c(Cl)c1O` (centres unmarked) [Compound 593], on hPin1, the IC50 fell in the range of 1 to 10 µM.
On to `CC(C)(C)NC(=O)Nc1cc(NC(=O)NC2CCCCC2)cc(Cl)c1O` [Compound 605], for which the half-inhibitory concentration (IC50) at LpCyp18 was over 100 µM; at EcParvulin (setting [2]), 1 to 10 µM; at hPin1, under 1 µM; at hCyp18 it was 10 to 50 µM; at hFKBP12, over 100 µM.
Consider `O=C(NCCc1ccccc1)Nc1cc(Cl)c(O)c(NCc2ccccc2Sc2ccc(Cl)cc2)c1` [Compound 610], for which the IC50 on hPin1 is under 1 µM.
Still for that read-out and setting: under `CC(C)(C)NC(=O)Nc1cc(NC(=O)NCCc2ccccc2)cc(Cl)c1O` [Compound 622] stands under 1 µM; under `CC(C)(C)NC(=O)Nc1cc(-c2nc3ccccc3s2)cc(Cl)c1O` [Compound 636], under 1 µM.
Same read-out and setting: under `Oc1c(Cl)cc(-c2nc3ccccc3s2)cc1NC(=S)NCc1ccccc1` [Compound 637] stands 1 to 10 µM; under `Oc1c(Cl)cc(-c2nc3ccccc3s2)cc1NC(=S)NCCc1ccccc1` [Compound 638], 1 to 10 µM.
As for `Cc1c(Cl)cc(NC(=O)c2ccc(-c3ccccc3)cc2)c(O)c1Cl` [Compound 644], at Papain, the concentration for half-maximal inhibition (IC50) was over 100 µM.
With `Oc1c(Cl)cc(Cl)cc1NCc1ccco1` [Compound 647], the half-inhibitory concentration (IC50) at LpCyp18 is over 100 µM; on EcParvulin (setting [2]) it was over 100 µM; on hPin1, 1 to 10 µM; at hCyp18, over 100 µM; on hFKBP12, over 100 µM.
With `Cc1c(Cl)cc(NCc2ccccc2)c(O)c1Cl` [Compound 655], the IC50 on LpCyp18 is over 100 µM; at EcParvulin (setting [2]), 10 to 50 µM; at hPin1 it was 10 to 50 µM; on hCyp18, over 100 µM; at hFKBP12 it was over 100 µM.
With `Cc1c(Cl)cc(NC(=O)NCCc2nc3ccccc3[nH]2)c(O)c1Cl` [Compound 656], the IC50 at hPin1 was under 1 µM.
As for `Oc1ccc(NCc2ccccc2Sc2ccc(Cl)cc2)c(O)c1` [Compound 672], the figures for the half-inhibitory concentration (IC50) at LpCyp18 and on hCyp18 were 10 to 50 µM and 1 to 10 µM, respectively.
In the case of `O=C(NCc1ccccc1)Nc1cc(Cl)c(O)c(Cl)c1` [Compound 700], the IC50 at LpCyp18 is over 100 µM; at EcParvulin (setting [2]), 10 to 50 µM; at hPin1, under 1 µM; at hCyp18 it was over 100 µM; on hFKBP12, over 100 µM.
Turning to `O=C(Nc1cc(Cl)c(O)c(Cl)c1)NC12CC3CC(CC(C3)C1)C2` [Compound 719], the IC50 was 10 to 50 µM on LpCyp18, under 1 µM on hPin1, 50 to 100 µM on hCyp18 and over 100 µM on hFKBP12.
Consider `Oc1c(Cl)cc(NC(=S)Nc2ccccc2C(F)(F)F)cc1Cl` [Compound 894], for which the IC50 was over 100 µM against LpCyp18; 1 to 10 µM on EcParvulin (setting [2]); under 1 µM on hPin1; over 100 µM on hCyp18; over 100 µM at hFKBP12.
Take `O=C(CCc1ccccc1)Nc1cc(Cl)c(O)c(Cl)c1` [Compound 1293]: the IC50 at LpCyp18 is over 100 µM; on EcParvulin (setting [2]), 10 to 50 µM; on hPin1, 1 to 10 µM; at hCyp18, over 100 µM; at hFKBP12, over 100 µM.
Consider `O=C(Cc1ccccc1[N+](=O)[O-])Nc1cc(Cl)c(O)c(Cl)c1` [Compound 1294], for which the IC50 on LpCyp18 is over 100 µM; on EcParvulin (setting [2]) it was 1 to 10 µM; at hPin1 it was under 1 µM; on hCyp18, over 100 µM; on hFKBP12, over 100 µM.
For the molecule `O=C(Cc1ccc2c(c1)OCO2)Nc1cc(Cl)c(O)c(Cl)c1` [Compound 1295], the concentration for half-maximal inhibition (IC50) was over 100 µM against LpCyp18; 1 to 10 µM at EcParvulin (setting [2]); 1 to 10 µM on hPin1; over 100 µM on hCyp18; over 100 µM on hFKBP12.
What is called EC50 is the concentration that produces a half-maximal response. Take `O=C(Nc1cc(Cl)c(O)c(Cl)c1)c1ccc2ccccc2c1` [Compound 1297]: the IC50 was over 100 µM at LpCyp18; 10 to 50 µM at EcParvulin (setting [2]); under 1 µM at hPin1; over 100 µM on hCyp18; over 100 µM at hFKBP12. The EC50 at 48 h in data set [1] was 50 to 100 µM.
In the case of `O=C(Nc1cc(Cl)c(O)c(Cl)c1)c1ccccc1` [Compound 1298], the IC50 at LpCyp18 is over 100 µM; at EcParvulin (setting [2]) it was 10 to 50 µM; at hPin1 it was under 1 µM; at hCyp18, over 100 µM; at hFKBP12, over 100 µM.
As for `O=C(Nc1cc(Cl)c(O)c(Cl)c1)c1ccco1` [Compound 1299], the IC50 on LpCyp18 is over 100 µM; on EcParvulin (setting [2]), 10 to 50 µM; on hPin1, under 1 µM; at hCyp18, under 1 µM; on hFKBP12, over 100 µM.

The values above are taken from patent US20110065760A1, “COMPOUNDS FOR THE INHIBITION OF ROTAMASES AND USE THEREOF” (Jerini AG, priority 2002, published 2011).
